Test results from the NIST ThermoML archive (doi:10.1021/je050367p).
Values joined by “and” are separate entries in the source; they are usually repeats but may differ in a detail not shown here. Equal entries are not always repeated. Numbers after ± are expanded uncertainties.

Key:
[1] = Liquid; for viscosity: Capillary tube (Ostwald / Ubbelohde) method
[2] = refractive index (Na D-line) (dimensionless); conditions: 101.33 kPa, Liquid, Standard Abbe refractometry
[3] = xn = mol fraction of the nth substance listed; conditions: Liquid; for viscosity: Capillary tube (Ostwald / Ubbelohde) method
[4] = refractive index (Na D-line) (dimensionless); xn = mol fraction of the nth substance listed; conditions: 100.8 kPa, Liquid, Standard Abbe refractometry

Row | mass density ([1]; 288.15 K, 100.8 kPa) [kg/m3] | viscosity ([1]; 288.15 K, 100.8 kPa) [mPa·s] | mass density ([1]; 298.15 K, 100.8 kPa) [kg/m3] | viscosity ([1]; 298.15 K, 100.8 kPa) [mPa·s] | mass density ([1]; 308.15 K, 100.8 kPa) | viscosity ([1]; 308.15 K, 100.8 kPa) [mPa·s] | refractive index ([2]; 288.15 K) | refractive index ([2]; 298.15 K) | refractive index ([2]; 308.15 K) | refractive index ([4]; 288.15 K, x2 = 0) | refractive index ([4]; 298.15 K, x2 = 0) | refractive index ([4]; 308.15 K, x2 = 0) | mass density ([1]; 288.15 K, 100.5 kPa) [kg/m3] | viscosity ([1]; 288.15 K, 100.5 kPa) [mPa·s] | mass density ([1]; 298.15 K, 100.5 kPa) [kg/m3] | viscosity ([1]; 298.15 K, 100.5 kPa) [mPa·s] | mass density ([1]; 308.15 K, 100.5 kPa) [kg/m3] | viscosity ([1]; 308.15 K, 100.5 kPa) [mPa·s] | SMILES | further results
1 | 793.74 ± 0.23 | 1.309 ± 0.011 | 785.17 ± 0.23 | 1.084 ± 0.009 | 776.49 ± 0.24 kg/m3 | 0.905 ± 0.008 | 1.36342 ± 0.00031 | 1.35924 ± 0.00031 | 1.35502 ± 0.00031 |  |  |  | 793.74 ± 0.23 | 1.309 ± 0.009 | 785.17 ± 0.23 | 1.084 ± 0.009 | 776.49 ± 0.24 | 0.905 ± 0.008 | CCO [ethanol] | 
2 |  |  |  |  |  |  |  |  |  | 1.36342 ± 0.00031 | 1.35924 ± 0.00031 | 1.35502 ± 0.00031 |  |  |  |  |  |  | CCO [ethanol] + CC(C)OC(C)C | viscosity ([3]; 288.15 K, 100.5 kPa, x2 = 0): 1.309 ± 0.009 mPa·s; mass density ([3]; 288.15 K, 100.5 kPa, x2 = 0): 793.74 ± 0.23 kg/m3; viscosity ([3]; 298.15 K, 100.5 kPa, x2 = 0): 1.084 ± 0.009 mPa·s; mass density ([3]; 298.15 K, 100.5 kPa, x2 = 0): 785.17 ± 0.23 kg/m3; viscosity ([3]; 308.15 K, 100.5 kPa, x2 = 0): 0.905 ± 0.008 mPa·s; mass density ([3]; 308.15 K, 100.5 kPa, x2 = 0): 776.49 ± 0.24 kg/m3

The next lines start with the compound.

Row | SMILES | mass density ([1]; 288.15 K, 100.8 kPa) [kg/m3] | viscosity ([1]; 288.15 K, 100.8 kPa) [mPa·s] | mass density ([1]; 298.15 K, 100.8 kPa) [kg/m3] | viscosity ([1]; 298.15 K, 100.8 kPa) [mPa·s] | mass density ([1]; 308.15 K, 100.8 kPa) | viscosity ([1]; 308.15 K, 100.8 kPa) [mPa·s] | refractive index ([2]; 288.15 K) | refractive index ([2]; 298.15 K) | refractive index ([2]; 308.15 K) | refractive index ([4]; 288.15 K, x2 = 0) | refractive index ([4]; 298.15 K, x2 = 0) | refractive index ([4]; 308.15 K, x2 = 0) | mass density ([1]; 288.15 K, 100.5 kPa) [kg/m3] | viscosity ([1]; 288.15 K, 100.5 kPa) [mPa·s] | mass density ([1]; 298.15 K, 100.5 kPa) [kg/m3] | viscosity ([1]; 298.15 K, 100.5 kPa) [mPa·s] | mass density ([1]; 308.15 K, 100.5 kPa) [kg/m3] | viscosity ([1]; 308.15 K, 100.5 kPa) [mPa·s] | further results
3 | CC(C)CC(C)(C)C [2,2,4-trimethylpentane] | 695.95 ± 0.31 | 0.537 ± 0.007 | 687.74 ± 0.31 | 0.48 ± 0.007 | 679.43 ± 0.32 kg/m3 and 679.41 ± 0.32 kg/m3 | 0.432 ± 0.007 | 1.39404 ± 0.00031 | 1.389 ± 0.00031 | 1.38395 ± 0.00031 |  |  |  |  |  |  |  |  |  | 
4 | CC(C)CC(C)(C)C [2,2,4-trimethylpentane] + CC(C)OC(C)C |  |  |  |  |  |  |  |  |  | 1.39404 ± 0.00031 | 1.389 ± 0.00031 | 1.38395 ± 0.00031 |  |  |  |  |  |  | viscosity ([3]; 288.15 K, 100.8 kPa, x2 = 0): 0.537 ± 0.007 mPa·s; mass density ([3]; 288.15 K, 100.8 kPa, x2 = 0): 695.95 ± 0.31 kg/m3; viscosity ([3]; 298.15 K, 100.8 kPa, x2 = 0): 0.48 ± 0.007 mPa·s; mass density ([3]; 298.15 K, 100.8 kPa, x2 = 0): 687.74 ± 0.31 kg/m3; viscosity ([3]; 308.15 K, 100.8 kPa, x2 = 0): 0.432 ± 0.007 mPa·s; mass density ([3]; 308.15 K, 100.8 kPa, x2 = 0): 679.43 ± 0.32 kg/m3
5 | CC(C)OC(C)C [diisopropyl ether] | 729.09 ± 0.3 | 0.348 ± 0.007 | 718.7 ± 0.3 | 0.313 ± 0.006 | 708.12 ± 0.31 kg/m3 | 0.283 ± 0.006 | 1.37093 ± 0.00032 | 1.36524 ± 0.00032 | 1.35944 ± 0.00032 |  |  |  | 729.09 ± 0.3 | 0.348 ± 0.007 | 718.7 ± 0.3 | 0.313 ± 0.006 | 708.12 ± 0.31 | 0.283 ± 0.006 | 
6 | CCO [ethanol] + CC(C)CC(C)(C)C |  |  |  |  |  |  |  |  |  |  |  |  |  |  |  |  |  |  | viscosity ([3]; 288.15 K, 100.8 kPa, x1 = 1): 1.309 ± 0.011 mPa·s; mass density ([3]; 288.15 K, 100.8 kPa, x1 = 1): 793.74 ± 0.23 kg/m3; viscosity ([3]; 298.15 K, 100.8 kPa, x1 = 1): 1.084 ± 0.009 mPa·s; mass density ([3]; 298.15 K, 100.8 kPa, x1 = 1): 785.17 ± 0.23 kg/m3; viscosity ([3]; 308.15 K, 100.8 kPa, x1 = 1): 0.905 ± 0.008 mPa·s; mass density ([3]; 308.15 K, 100.8 kPa, x1 = 1): 776.49 ± 0.24 kg/m3; refractive index ([4]; 288.15 K, x1 = 1): 1.36342 ± 0.00031; refractive index ([4]; 298.15 K, x1 = 1): 1.35924 ± 0.00031; refractive index ([4]; 308.15 K, x1 = 1): 1.35502 ± 0.00031
